Converted amounts (≈) assume the structure as drawn. “Also recorded” adds a separate entry of the source.
Tests used:
[1] = tested on: B16F10 melanoma; test: In vivo covalent binding of (14C)-NACAP to tissues of melanoma-bearing mice; details: female C57BL/6J mice, single i.p. injection, 48 hr, mean + S.D. (n = 3)
Method: In vivo covalent binding of (^14 C)-N-acetyl-4-S-CAP was investigated in mice. Female C57BL/6J mice received a single intraperitoneal injection of 2.0 mmol/kg (^14 C)-N-acetyl-4-S-CAP compound. The animals were killed 48 hours later. The tissues were removed and the covalent binding was determined as follows.
Five different tissues were examined for covalent binding of radioactively labelled N-acetyl-4-S-CAP intermediate(s). The maximum binding of N-acetyl-4-S-CAP was detected in the s.c. melanoma tumor and melanoma colony-bearing lung tissues. […]
^a Female C57BL/6J mice received a single intraperitoneal injection o
2.0 nmol/kg (^14 C)NACAP. The animals were killed 48 hr later, the
tissues were removed, and the covalent binding was determined as describe
^b The data are presented as the means + S.D. (n = 3).

[2] = tested on: B16F10 melanoma; test: In vivo biodistribution by whole-body autoradiography; set-up: species or system mouse
Method: 48 hours after injection the animal was killed, frozen and prepared for sectioning. The 20-μm sections were freeze-dried and exposed to x-ray film for whole-body autoradiography.
The s.c. melanoma tumor and the lung with melanoma colonies were the only organs displaying a significant accumulation of the radioactivity.

[3] = tested on: melanoma tissue; test: Distribution of 4-S-CAP in radioimaging or radiochemotherapy; details: in vivo
From the text: When the compounds of the formula (I) are used in radiochemotherapy they may be combined with suitable pharmaceutical excipients and carriers wherein the radioactive selected compounds are present in a biologically effective amount in the carriers. Suitable biologically, compatible carriers may be solutions when injected by either the IP or SC route. Suitable biologically, compatible carriers for injection include physiologically normal saline and other types of readily injectable solutions which are well understood by those skilled in the art and readily available. […] For purposes of injection, the concentration of the radiolabelled compound in the injectable solution is normally in the range of 200 to 1200 mg per kg of body weight where the preferred dosage is in the range of 300 mg to 500 mg per kg of body weight. In the following examples, further information is provided as to the amount of compounds injected for purposes of radioimaging.

[4] = tested on: melanoma; details: mice in vivo; cited from earlier work
[5] = tested on: epidermal melanocytes; details: topical application, cited from earlier work
[6] = tested on: follicular melanocytes; details: cited from earlier work
[7] = tested on: monoamineoxidase (MAO); details: cited from earlier work; for General (non-specific) cytotoxicity: via aldehyde metabolite formed by plasma MAO
[8] = Determination of NAP-TEA and N-Acetyl-4-S-CAP in plasma after i.p. injection; type: in vivo, C57BL/6J Black Mouse; details: NAP-TEA 300 mg/kg i.p., plasma at 5 and 20 minutes
Method: A C57BL/6J Black Mouse was injected at 300 mg/kg body weight by i.p. administration of NAP-TEA. 100 μl of plasma was extracted from the mouse after 5 minutes of injection and after 20 minutes of injection. The plasma samples were treated in accordance with the procedure of Example 2. The plasma samples were passed through a Sep-Pak C18 cartridge in either 5% methanol:water to produce eluent 1 or 50% methanol/water to produce eluent 2. Eluent 2 had the aqueous methanol removed therefrom to provide a residue. The residue was redissolved in methanol/0.1% acetic acid and water in a ratio of 50:50 and subjected to HPLC for both the 5 minute and 20 minute plasma samples. […] The concentration of N-Acetyl-4-S-CAP in the 5 minute extracted sample being considerably greater than in the 20 minute extracted sample to indicate that in vivo NAP-TEA is deacylated to N-Acetyl-4-S-CAP which in turn is then taken up by the mouse melanocytes.

[9] = tested on: HeLa; test: In vitro cytotoxicity, MTT assay, HeLa; type: cell-based; details: Homo sapiens, 120 h, 5 days
Method: (§1) MTT assay in accordance with the standard procedure
(§2) MTT solution (Sigma catalog No. M2128) was dissolved in PBS at 1 mg/ml and filtered to sterilize the solution. The solution was stored in the dark at 4° C. until used. The growing cells were harvested, counted and inoculated into 96 well microtiter plates (1-2×10^3 cells/well).After 24 h, drugs were applied to culture wells, and the cultures were incubated for 5 days at 37° C. At this time, 50 μl of MTT solution was added to microculture wells. After 4 h incubation at 37° C., supernatant was removed from each well. 150 μl of DMSO was added to solubilized the MTT-formazan product. After mixing gently, absorbance at 540 nm was measured with ELISA plate spectrophotometer.

[10] = tested on: SK-MEL-23; test: In vitro cytotoxicity, MTT assay, SK-MEL-23; type: cell-based; details: 120 h; SK-MEL-23, MTT, 5 days
Method: as §1, §2

[11] = tested on: UT amelanotic melanoma; test: In vitro cytotoxicity, MTT assay, UT amelanotic melanoma; type: cell-based; details: 120 h, 5 days
Method: as §1, §2

[12] = tested on: mushroom tyrosinase; test: Utilization with mushroom tyrosinase (remaining compound by HPLC); type: biochemical; details: 11 units tyrosinase, pH 6.8, 37° C.
Method: A reaction mixture consisting of NAP-TEA (500 μmol) and of mushroom tyrosinase (11 units) in 1.0 ml of 0.05 M sodium phosphate buffer (pH 6.8) was incubated at 37° C. in a water bath. The reaction was stopped periodically by cooling with ice. Aliquots removed at set time intervals were rapidly cooled to 0° C. in an ice bath and the remaining NAP-TEA was measured using HPLC. HPLC instrument and conditions Water 600 E liquid chromatograph system Conditions: μBondapak C18, Radial-Pak Cartridge (Waters) Mobile phase; 70% MeOH/H2 O, 1 ml/min Detector; Waters Model 441 UV absorbance detector Detection; Wavelength 254 nm

[13] = tested on: tyrosinase; details: cited from earlier work
[14] = O-deacylation of NAP-TEA in mouse plasma in vitro; type: in vitro ADME; details: 10 μg in 100 μl mouse plasma, shaken one-half minute, HPLC
Method: NAP-TEA was introduced to mouse plasma to determine by in vitro experimentation the extent to which NAP-TEA is deacetylated to form N-Acetyl-4-S-CAP. The procedure was as follows. Into 100 μl of mouse plasma, 10 μg of NAP-TEA was introduced. The mixture was shook for one-half of a minute and then passed through a Sep-Pak C18 cartridge in either 7 ml of 5% methanol/water to form eluent 1 or in 4 ml of 50% methanol/water to form eluent 2. Both eluents 1 and eluents 2 were collected. Aqueous methanol was removed from eluent 2 to provide a residue which was subjected to HPLC under the following conditions. […] The residue was mixed with methanol:water at 50:50 with a flow rate through the radiograph at 1 ml/min. The detector was a Water Associates Model 441 with detection by ultraviolet at 250 nm.

[15] = tested on: follicular melanocytes (black hair); test: Melanocytotoxicity in vivo (depigmentation of black hair); details: 300 mg/kg i.p. daily for 14 days, plucked C57BL/6J black mice
Method: Hairs were plucked manually from the back of 6-8 week old C57BL/6J black mice (4 mice). Starting on day 2, daily for 14 days NAP-TEA was injected i.p. The dose was 300 mg/kg body weight.

[16] = tested on: hair follicles; test: Depigmenting effect on newborn black mice; type: in vivo, C57BL/6J black mice; details: single i.p. dose 300 mg/kg, 3 day old mice
Method: Six newborn (3 day old) C57BL/6J black mice were injected i.p. with a single dose of 0.1 mL of NAP-TEA solution (300 mg/kg body weight).

[17] = tested on: functioning melanocytes; test: In vivo melanocytotoxicity in pig, topical application, Dopa-positive melanocyte count; set-up: species or system Yucatan pig; details: topical twice a day for 8 weeks
Method: Solutions of 15% NAP-TEA in DMSO(w/v) and of 15% NAP-TEA in 60% EtOH(w/v) were prepared for topical application to a Yucatan pig. NAP-TEA was applied to the back skin of the pig twice a day for 8 weeks. After 8 weeks, punch biopsy was performed from the application area and from normal skin. Specimens obtained were kept in 2N NaBr solution for 3 hours followed by separation of the epidermis from dermis. Specimens of epidermis were incubated for 3 hours in phosphate buffer (pH 7.4) containing L-Dopa. The specimens were fixed in 10% neutral formalin solution and then washed twice in PBS. Finally, the specimens were mounted in glycerol gel. The numbers of Dopa-positive melanocytes in 9 adjacent 1 mm^2 fields from each sample were counted.

[18] = set-up: species or system animals; details: in vivo
Method: Experimental tests on animals indicate per single dose toxicity levels in the range of 1,400 mg/kg of body weight for the preferred compound of formula (II), NAP-TEA.

In the case of `CC(=O)NCCS[14c]1[14cH][14cH][14c](O)[14cH][14cH]1` [(14C)-NACAP, N-acetyl-4-S-cysteaminyl (U-^14 C) phenol], the “Convalent Binding, B16F10 melanoma s.c. tumor” value [1] is reported as 0.521 + 0.076 nmol covalently bound/kg of protein, the “Convalent Binding, kidney” value [1] is reported as 0.008 + 0.001 nmol covalently bound/kg of protein and the “Convalent Binding, liver” value [1] is reported as 0.013 + 0.003 nmol covalently bound/kg of protein. The “Convalent Binding, lungs with B16F10 melanoma colonies” value [1] was 0.330 + 0.113 nmol covalently bound/kg of protein, the “Convalent Binding, lungs without B16F10 melanoma colonies” value [1] was 0.010 + 0.001 nmol covalently bound/kg of protein and the “Radioactivity in normal organs by whole-body autoradiography” value ([2]; 48 hours after i.p. injection, mouse) was “not detectable in any normal organs except the lumen of the large intestine”. For the same compound, the “Radioactivity in melanoma-bearing organs by whole-body autoradiography” value ([2]; mouse with s.c. B16F10 tumor and B16F10 lung colonies, single i.p. injection 5.0 μCi, 48 hours) was “showed radioactivity in infected organs”.

For `NCCSc1ccc(O)cc1` [Compound 4-S-CAP, 4-S-cysteaminylphenol], the “Tissue accumulation in radioimaging or radiochemotherapy” value [3] is given as “collects in the eye as well as in the melanoma tissue”, the “Antimelanoma effect (lifespan of melanoma-bearing mice, inhibition of melanoma growth)” value [4] is given as “potent agent in prolonging the lifespan of melanoma-bearing mice” and the “Inflammatory changes of the skin” value ([5]; guinea pigs) is given as “prominent”. The “Depigmentation of black guinea pig skin” value [5] was “demonstrated depigmenting properties”, the “Effect on albino follicles” value ([6]; albino follicles) was “no effect on the albino follicles” and the “Cytotoxicity on black hair follicles” value ([6]; black follicles) was “demonstrated cytotoxicity in the depigmentation of black hair follicles”. For the same compound, the “Substrate for monoamineoxidase (MAO)” value ([7]; plasma) was “substrate for monoamineoxidase (MAO)” and the “General (non-specific) cytotoxicity” value [7] was “high toxicity; also recorded: some general cytotoxicity”.

In the case of `NC(CSc1ccc(O)cc1)C(=O)O` (stereo not drawn) [Compound 4-S-CP, 4-S-cysteinylphenol], the “Antimelanoma effect (lifespan of melanoma-bearing mice, inhibition of melanoma growth)” value [4] is listed as “some inhibition of melanoma growth”.

For `CC(=O)NCCSc1ccc(O)cc1` [N-Acetyl-4-S-CAP, N-acetyl-4-S-cysteaminylphenol], the “Compound detected in plasma by HPLC after NAP-TEA injection” value [8] was “evidence of N-Acetyl-4-S-CAP”, the IC50 [9] was 75 µg/mL (≈ 355 µM) and the IC50 [10] was 25 µg/mL (≈ 118 µM). The IC50 [11] was 12 µg/mL (≈ 56.8 µM), the “Substrate of mushroom tyrosinase (concentration remaining in the reaction mixture)” value [12] was “dropped off rapidly over 25 minutes to almost zero amount after 50 minutes” and the “Antimelanoma effect (lifespan of melanoma-bearing mice, inhibition of melanoma growth)” value [4] was “potent antimelanoma properties”. The “General (non-specific) cytotoxicity” value [7] was “absence of such cytotoxicity” and the Substrate of tyrosinase [13] was “superior substrate”.

With `CC(=O)NCCSc1ccc(OC(C)=O)cc1` [NAP-TEA, N-{2-((4-Acetoxyphenyl)-thio)ethyl}acetamide] the “O-deacylation to N-Acetyl-4-S-CAP in mouse plasma” value [14] was “readily deacylated by the mouse plasma”, the “Compound detected in plasma by HPLC after NAP-TEA injection” value [8] was “no evidence of NAP-TEA” and the IC50 [9] was 77 µg/mL (≈ 304 µM). The IC50 [10] was 31 µg/mL (≈ 122 µM), the IC50 [11] was 14 µg/mL (≈ 55.3 µM) and the “Substrate of mushroom tyrosinase (concentration remaining in the reaction mixture)” value [12] was “not a substrate of mushroom tyrosinase”. The “Depigmentation of replacement hair” value [15] was “mice were depigmented with the new replacement hair being almost pure white”, the “Depigmentation of hair follicles in newborn mice” value [16] was “depigmented in all hair follicles with the growing hair being light grey” and the “Number of functioning melanocytes (Average of 9 fields)” value ([17]; 15% NAP-TEA in 60% EtOH) was 74 ± 25 /mm^2. For the same compound, the “Number of functioning melanocytes (Average of 9 fields)” value ([17]; 15% NAP-TEA in DMSO) was 32 ± 14 /mm^2 and the “per single dose toxicity level” value [18] was ~1,400 mg/kg of body weight.

For `COC(=O)C(N)CSc1ccc(O)cc1` (stereo not drawn) [methyl ester of 4-S-CP], the “Antimelanoma effect (lifespan of melanoma-bearing mice, inhibition of melanoma growth)” value [4] is listed as “some inhibition of melanoma growth”.
